Assay results reported in patent US20200079765A1, “SUBSTITUTED HETEROARYL PYRROLONES AND SALTS THEREOF AND USE THEREOF AS HERBICIDAL ACTIVE SUBSTANCES” (Bayer CropScience Aktiengesellschaft, priority 2016, published 2020).

Legend:
Abutilon theophrasti [1] = experiment: Herbicidal post-emergence action (Experimental Part 2, C); assay type: in vivo; settings: post-emergence (Part 2), application rate 320 g/ha, rated visually after about 3 weeks
Protocol: (§1) Seeds of mono- and dicotyledonous weed plants were placed in plastic pots in sandy loam soil (doubly sown with in each case one species of mono- or dicotyledonous weed plants per pot), covered with soil and cultivated in a greenhouse under controlled growth conditions. 2 to 3 weeks after sowing, the test plants were treated at the one-leaf stage. The compounds of the invention, formulated in the form of wettable powders (WP) or as emulsion concentrates (EC), were applied onto the green parts of the plants as aqueous suspension or emulsion with addition of 0.5% additive at a water application rate of 600 liters per hectare (converted). After the test plants had been kept in the greenhouse under optimum growth conditions for about 3 weeks, the activity of the preparations was rated visually in comparison to untreated controls. For example, 100% activity=the plants have died, 0% activity=like control plants. Tables C1 to C8 below show the effects of selected compounds of the general formula (I) according to Tables I.1 to I.116 on various harmful plants and an application rate corresponding to 1280 g/ha or 320 g/ha, which were obtained by the experimental procedure mentioned above.

Lolium rigidum [2] = experiment: as above; assay type: in vivo; settings: post-emergence (Part 2), rated visually after about 3 weeks
Protocol: as §1

Setaria viridis [3] = experiment: as above; assay type: in vivo; settings: post-emergence (Part 2), application rate 320 g/ha, rated visually after about 3 weeks
Protocol: as §1

Stellaria media [4] = experiment: as above; assay type: in vivo; settings: post-emergence (Part 2), application rate 320 g/ha, rated visually after about 3 weeks
Protocol: as §1

Matricaria inodora [5] = experiment: as above; assay type: in vivo; settings: post-emergence (Part 2), application rate 320 g/ha, rated visually after about 3 weeks
Protocol: as §1

Poa annua [6] = experiment: as above; assay type: in vivo; settings: post-emergence (Part 2), application rate 320 g/ha, rated visually after about 3 weeks
Protocol: as §1

Echinochloa crus-galli [7] = experiment: as above; assay type: in vivo; settings: post-emergence (Part 2), rated visually after about 3 weeks
Protocol: as §1

Amaranthus retroflexus [8] = experiment: as above; assay type: in vivo; settings: post-emergence (Part 2), application rate 320 g/ha, rated visually after about 3 weeks
Protocol: as §1

photosystem II (PS II) = biological target: T1, photosystem II (PS II) (Spinacia oleracea, UniProt P69560); experiment: Measurement of the PS II activity in thylakoid membranes (DCPIP reduction, Experimental Part 3, Table E1); assay type: biochemical; settings: spinach thylakoid membranes
T1 construct: the chloroplasts were osmotically ruptured and the thylakoid membranes were then obtained by centrifugation; from tissue; host or cells: thylakoid membranes from fresh spinach leaves
Protocol: Cooled fresh spinach leaves were comminuted and homogenized in 50 mM phosphate buffer, pH 6.8. 10 mM KCl, 0.34 M sucrose (sucrose buffer) (blender, 1 g of plant material/ml). The homogenate was subsequently filtered through 4 layers of Miracloth and the chloroplasts were isolated by centrifugation, i.e. 10 min of centrifugation at 4400×g (4° C.). The sediment was suspended in 25 ml of sucrose buffer and re-centrifuged for 10 min at 4400×g (4° C.). The sediment was then suspended in 40 ml of 50 mM phosphate buffer, pH 6.8, 10 mM KCl, without sucrose. In this step, the chloroplasts were osmotically ruptured and the thylakoid membranes were then obtained by centrifugation (10 min, 4400×g, 4° C.). The membrane sediment was finally suspended in about 20 ml of 50 mM phosphate buffer, pH 6.8, 10 mM KCl. Following protein determination and activity determination, the membrane suspension was divided into aliquots and frozen in liquid nitrogen. The aliquots were stored at −80° C. Under these conditions, the photosystem II preparation was storage stable for at least three months. The activity determination of photosystem II (PS II) was then carried out using the following test principle: The electron transfer from PS II to an artificial electron acceptor, 2,6-dichlorophenolindophenol (DCPIP), was measured with exposure to light. The concentration of the blue oxidized form of DCPIP was determined spectrophotometrically at wavelength λ=595 nm. […] The activity determination was carried out in microtiter plates (96 cavities) in a reaction volume of 200 μl. Here, 155 μl of dilute membrane suspension were initially charged in 50 mM of phosphate buffer, pH 6.8, 10 mM KCl. Depending on the activity of the PS II preparation, the dilution was adjusted such that the measurement of the decrease in absorption (λ=595 nm) was linear for at least 10 min. In each case 5 μl solution of the test compounds of a concentration of 100 μM in DMSO were added to the enzyme suspension; controls contained 5 μl DMSO; the final concentration of DMSO in the reaction batch was thus 2.5% (v/v); this concentration had no adverse effect on the enzymatic activity. On each microtiter plate, a known PS II inhibitor, for example metribuzin, was used as standard, which allowed the quality of the PS II test to be assessed. The reaction was started by addition of 40 μl DCPIP solution (600 μM in distilled water); the final concentration of DCPIP was 120 μM. Measurement of absorption was carried out over a period of 10 min at 22° C. and with exposure to light. Using metribuzin as comparative substance, the results for the efficacy of the compounds of the general formula (I) at 100 μM are stated in the table below using the following classification: ++++ (inhibition≥90%), +++ (90%>inhibition≥70%), ++ (70%>inhibition≥50%), + (50%>inhibition≥30%).
Effects of selected compounds of the general formula (I) according to the following table E1: […]

Abutilon theophrasti [9] = experiment: Herbicidal pre-emergence action (Experimental Part 2, D); assay type: in vivo; settings: pre-emergence (Part 2), application rate 320 g/ha, scored visually after about 3 weeks
Source text: (§2) Seeds of mono- and dicotyledonous weed plants were placed in plastic pots in sandy loam soil (doubly sown with in each case one species of mono- or dicotyledonous weed plants per pot) and covered with soil. The compounds of the invention, formulated in the form of wettable powders (WP) or as emulsion concentrates (EC), were then applied onto the surface of the covering soil as aqueous suspension or emulsion with addition of 0.5% additive at a water application rate of 600 liters per hectare (converted). After the treatment, the pots are placed in a greenhouse and kept under good growth conditions for the trial plants. After about 3 weeks, the effect of the preparations was scored visually in comparison with untreated controls as percentages. For example, 100% activity=the plants have died, 0% activity=like control plants. Tables D1 to D8 below show the effects of selected compounds of the general formula (I) according to Tables I.1 to I.116 on various harmful plants and an application rate corresponding to 1280 g/ha or 320 g/ha, which were obtained by the experimental procedure mentioned above.

Lolium rigidum [10] = experiment: as above; assay type: in vivo; settings: pre-emergence (Part 2), scored visually after about 3 weeks
Source text: as §2

Setaria viridis [11] = experiment: as above; assay type: in vivo; settings: pre-emergence (Part 2), scored visually after about 3 weeks
Source text: as §2

Stellaria media [12] = experiment: as above; assay type: in vivo; settings: pre-emergence (Part 2), application rate 320 g/ha, scored visually after about 3 weeks
Source text: as §2

Matricaria inodora [13] = experiment: as above; assay type: in vivo; settings: pre-emergence (Part 2), application rate 320 g/ha, scored visually after about 3 weeks
Source text: as §2

Poa annua [14] = experiment: as above; assay type: in vivo; settings: pre-emergence (Part 2), application rate 320 g/ha, scored visually after about 3 weeks
Source text: as §2

Echinochloa crus-galli [15] = experiment: as above; assay type: in vivo; settings: pre-emergence (Part 2), application rate 320 g/ha, scored visually after about 3 weeks
Source text: as §2

Amaranthus retroflexus [16] = experiment: as above; assay type: in vivo; settings: pre-emergence (Part 2), application rate 320 g/ha, scored visually after about 3 weeks
Source text: as §2

Effect (inhibition of PS II activity) (photosystem II (PS II)) | Structure (SMILES) | Abutilon theophrasti, herbicidal activity (Abutilon theophrasti [1]) | Lolium rigidum, herbicidal activity (Lolium rigidum [2]; application rate 1280 g/ha) | Setaria viridis, herbicidal activity (Setaria viridis [3]) | Stellaria media, herbicidal activity (Stellaria media [4]) | Matricaria inodora, herbicidal activity (Matricaria inodora [5]) | Poa Annua, herbicidal activity (Poa annua [6]) | Echinochloa crus-galli, herbicidal activity (Echinochloa crus-galli [7]; application rate 1280 g/ha) | Amaranthus retroflexus, herbicidal activity (Amaranthus retroflexus [8]) | Abutilon theophrasti, herbicidal activity (Abutilon theophrasti [9]) | Stellaria media, herbicidal activity (Stellaria media [12]) | Matricaria inodora, herbicidal activity (Matricaria inodora [13]) | Poa Annua, herbicidal activity (Poa annua [14]) | Echinochloa crus-galli, herbicidal activity (Echinochloa crus-galli [15]) | Amaranthus retroflexus, herbicidal activity (Amaranthus retroflexus [16]) | Lolium rigidum, herbicidal activity (Lolium rigidum [10]; application rate 320 g/ha) | Setaria viridis, herbicidal activity (Setaria viridis [11]; application rate 320 g/ha) | Lolium rigidum, herbicidal activity (Lolium rigidum [2]; application rate 320 g/ha) | Echinochloa crus-galli, herbicidal activity (Echinochloa crus-galli [7]; application rate 320 g/ha) | further results
++++ (inhibition≥90%) | CC1=CC(O)N(c2cc(C(C)(C)C)no2)C1=O (stereo not drawn) [I.2-290, 5-hydroxy-3-methyl-1-(3-tert-butyl-1,2-isoxazol-5-yl)-1,5-dihydro-2H-pyrrol-2-one] | 100% | 100% | 100% | 100% | 100% | 100% | 100% | 100% | 100% | 100% | 100% | 100% | 100% | 100% | – | – | – | – | Lolium rigidum, herbicidal activity (Lolium rigidum [10]; application rate 1280 g/ha): 100%; Setaria viridis, herbicidal activity (Setaria viridis [11]; application rate 1280 g/ha): 100%
– | CCC(=O)OC1C=C(C)C(=O)N1c1cc(C(C)(C)C)no1 (stereo not drawn) [I.6-290] | 100% | 90% | 100% | 100% | 100% | 100% | 100% | 100% | 100% | 100% | 100% | 100% | 90% | 100% | 90% | 90% | – | – | –
++++ (inhibition≥90%) | CC1=CC(O)N(c2cc(C(C)(C)C)on2)C1=O (stereo not drawn) [I.2-162, 5-hydroxy-3-methyl-1-(5-tert-butyl-1,2-isoxazol-3-yl)-1,5-dihydro-2H-pyrrol-2-one] | 100% | – | 100% | 100% | 100% | 100% | – | 100% | 100% | 100% | 100% | 100% | 100% | 100% | 90% | 100% | 90% | 100% | –
++++ (inhibition≥90%) | CC1=CC(O)N(c2noc(C(C)(C)C)c2C)C1=O (stereo not drawn) [I.2-177] | 100% | – | – | 100% | 100% | 100% | – | 100% | 100% | 100% | 100% | 100% | 100% | 90% | 90% | 100% | 90% | 100% | –
